Test results taken from publication PMC10819171, “Development of Pleiotropic TrkB and 5-HT4 Receptor Ligands as Neuroprotective Agents” (Molecules, 2024).

Experiments:
5-HT4 receptor [1] = molecular target: T1, 5-HT4 receptor (Homo sapiens, UniProt Q13639); assay: [3H]-GR113808 radioligand displacement at two concentrations; partial agonist reference in cAMP assay; format: binding; settings: read-out: 5-HT4R (1 × 10^-6 M)
T1 construct: gene HTR4

[2] = molecular target: T2, HA-tagged human 5-HT4 receptor (Homo sapiens, UniProt Q13639); assay: cell-based; design: cAMP production by HTRF in transiently transfected COS-7 cells, 10 min, with RO-20-1724; settings: COS-7; read-out: Top AMPc
T2 construct: gene HTR4; HA-tagged, transiently expressed in COS-7 cells
Description: COS-7 cells were purchased from ATCC (ATCC CRL-1651; LGC […], Molsheim, France). They were grown in Dulbecco’s modified Eagle medium (DMEM) supplemented with 10% dialyzed fetal calf serum (dFCS) and antibiotics. The cells were transiently transfected with the plasmid encoding HA-tagged human 5-HT4 receptor, then seeded in 96-wells plate (35,000 cells/well). Approximately 24 hrs after transfection, the cells were washed once with 200 µL of HBS (20 mM HEPES; 150 mM NaCl; 4.2 mM KCl; 0.9 mM CaCl2; 0.5 mM MgCl2; 0.1% glucose; 0.1% BSA) and, after HBS removal, exposed to the indicated concentrations of 5-HT4R ligands in the presence of 0.1 mM of the phosphodiesterase inhibitor RO-20-1724, at 37 °C in 100 µL of HBS. After 10 min, the cells were then lysed by the addition of the same volume of Triton-X100 (0.1%) during 30 min at 37 °C. Quantification of the cAMP production was performed by HTRF by using the cAMP—HTRF Gs Dynamic kit (Perkin Elmer, Codolet, France) according to the manufacturer’s instructions. 2.2.4.

5-HT4 receptor [3] = molecular target: T1, 5-HT4 receptor; assay: [3H]-GR113808 radioligand competition, five-point inhibition curves; partial agonist in cAMP HTRF assay; format: binding
5-HT4 receptor [4] = molecular target: T1, 5-HT4 receptor; assay: [3H]-GR113808 radioligand displacement at two concentrations; format: binding; settings: read-out: 5-HT4R (1 × 10^-6 M)

T1 sequence (Q13639 whole entry): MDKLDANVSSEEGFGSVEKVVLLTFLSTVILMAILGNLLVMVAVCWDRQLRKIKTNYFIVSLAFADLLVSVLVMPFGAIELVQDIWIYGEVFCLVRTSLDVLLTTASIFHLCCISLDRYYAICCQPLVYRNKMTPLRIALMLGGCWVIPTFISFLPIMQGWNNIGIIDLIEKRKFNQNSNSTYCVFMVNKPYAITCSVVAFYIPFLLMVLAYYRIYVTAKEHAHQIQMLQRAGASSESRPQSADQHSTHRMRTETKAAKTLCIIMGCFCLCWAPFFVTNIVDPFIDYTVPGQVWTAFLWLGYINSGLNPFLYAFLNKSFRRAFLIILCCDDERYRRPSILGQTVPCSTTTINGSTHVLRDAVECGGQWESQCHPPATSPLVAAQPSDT
T2 sequence (Q13639 whole entry): as above

Row | Ki (5-HT4 receptor [3]) | inhibition at 1 µM (5-HT4 receptor [4]) | Compound | inhibition at 1 µM (5-HT4 receptor [1]) | Emax [2]
1 |  |  | CCCCN1CCC(CCC(=O)c2cc(Cl)c(N)cc2OC)CC1 [RS67333] | 100% | 68%
2 | 0.0426 ± 0.0041 µM |  | COc1cc(N)c(Cl)cc1C(=O)CCC1CCN(CCNC(=O)c2cc(C(=O)NCCO)cc(C(=O)NCCO)c2)CC1 [compound 8, N^1-(2-{4-[3-(4-amino-5-chloro-2-methoxyphenyl)-3-oxopropyl]piperidin-1-yl}ethyl)-N^3,N^5-bis(2-hydroxyethyl)benzene-1,3,5-tricarboxamide] |  | 48%
3 |  | 82% | COc1cc(N)c(Cl)cc1C(=O)CCC1CCN(CCCNC(=O)c2cc(C(=O)NCCO)cc(C(=O)NCCO)c2)CC1 [compound 13, N^1-(3-(4-(3-(4-amino-5-chloro-2-methoxyphenyl)-3-oxopropyl)piperidin-1-yl)propyl)-N^3,N^5-bis(2-hydroxyethyl)benzene-1,3,5-tricarboxamide] |  | 
4 |  | 55% | COc1cc(N)c(Cl)cc1C(=O)CCC1CCN(CCOCCNC(=O)c2cc(C(=O)NCCO)cc(C(=O)NCCO)c2)CC1 [compound 19, N^1-(2-(2-(4-(3-(4-amino-5-chloro-2-methoxyphenyl)-3-oxopropyl)piperidin-1-yl)ethoxy)ethyl)-N^3,N^5-bis(2-hydroxyethyl)benzene-1,3,5-tricarboxamide] |  | 
